pIC50: −log10 of the molar value.
How the values were obtained:
Assay type in all cases: cell-based
[1] = system: SPI1 type III protein secretion system (SopE‘-’Bla secretion); test: Primary assay: Type III protein secretion of the chimeric SopE‘-’Bla polypeptide (nitrocefin hydrolysis); details: Salmonella enterica, read-out: SopE IC50(uM)
Excerpt: Primary assay: Type III protein secretion of the chimeric SopE‘-’Bla polypeptide by Salmonella enterica. This procedure is a cell-based assay that measures the type III-dependent secretion by Salmonella enterica of a plasmid-encoded chimeric polypeptide whose synthesis can be regulated, and which is endowed with an enzymatic activity that can be monitored colorimetrically by hydrolysis of a substrate that is unable to penetrate into the bacterial cytoplasm within the time constraints of the reaction. Thus, the colorimetric reaction is not influenced by SopE‘-’Bla polypeptide in the bacterial cytoplasm. Instead, it effectively measures the amount of polypeptide that has been secreted from the S. enterica cytoplasm to the extracellular medium via type III system protein secretion.
The SopE‘-’Bla recombinant polypeptide consists of two functionally distinct domains spliced together. The N-terminus domain is encoded by a polynucleotide region specifying the signal for type III secretion of the SopE polypeptide of S. enterica, an effector of the SPI1 type III protein secretion system. The C-terminus domain of SopE‘-’Bla consists of a 263 amino acid peptide sequence that corresponds to the TEM-1 β-lactamase expressed by plasmid pBR322 but without its N-terminal signal sequence. The TEM-1 β-lactamase part of the SopE‘-’Bla chimeric polypeptide is used as a reporter enzyme. It is capable of hydrolyzing nitrocefin resulting in a product whose accumulation can be monitored by colorimetric detection. The secretion of the SopE‘—’Bla chimeric polypeptide from the cytoplasm to the extracellular medium is dependent on type III protein secretion.
For this procedure, cells grown under conditions known to favor a functional SPI1 secretion system are induced for expression of the SopE‘-’Bla protein and grown either in the presence or in the absence of putative inhibitors for determined time. Nitrocefin is then added to the various cultures and its hydrolysis are used for quantitation. An inhibitor of Type III protein secretion is generally a compound that reduces the signal of the enzymatic reaction by decreasing the amount of SopE‘-’Bla secreted into the extracellular medium.

[2] = system: type III protein secretion system of P. aeruginosa PA103 (ExoU secretion); test: Tertiary assay: Type III-dependent secretion of ExoU by P. aeruginosa PA103 (SDS-PAGE band quantitation); details: Pseudomonas aeruginosa; P. aeruginosa PA103, ExoU secreted into extracellular medium
Excerpt: Tertiary assay: Inhibition of Type III protein secretion of effectors from a Pseudomonas aeruginosa system. Type III protein secretion is used by P. aeruginosa to secrete several essential virulence determinants. One effector of the type III protein secretion system of P. aeruginosa PA103 is the virulence determinants ExoU.
The amount of Type III-dependent secretion of ExoU by P. aeruginosa PA103 can be determined in a cell-based assay by quantification of the 73.9 kDa ExoU protein secreted into the extracellular medium. Such quantitation can be achieved by growing strain PA103 in a deferrated medium in the presence of nitrilotriacetic acid (an inducer of Type III protein secretion in P. aeruginosa) and either in the presence or absence of putative inhibitors. After a prolonged growth period, the cells are sedimented and the supernatants concentrated by ammonium sulfate precipitation. The proteins in the resuspended pellets are separated by electrophoresis on SDS-polyacrylamide gels. After staining gels with Colloidal Blue™, the 73.9 kDa ExoU band is quantitated by scanning through an imager. The effects of inhibitors on the intensity of the ExoU band may be measured relative to that of untreated controls.

[3] = system: SPI1 type III protein secretion system (SipB secretion); test: Secondary assay: Type III-dependent protein secretion of the SipB polypeptide (immunoblot); details: Salmonella enterica, read-out: SipB IC50(uM)
Method: Secondary assay: Type III-dependent protein secretion of the SipB polypeptide by S. enterica. The SipB protein of S. enterica is another effector of the SPI1 type III protein secretion system from S. enterica. In this cell-based procedure, the Type III-dependent secretion of SipB from the bacterial cytoplasm to the extracellular medium was measured through its reactivity with a cognate mouse monoclonal.
Salmonella enterica cells growing either in the presence or in the absence of inhibitors are induced for the production of SipB. Following an established period of growth the cells are sedimented and the amount of SipB present in the supernatant is quantified with a scanning imager following application of immunoblot techniques. Detection may employ an anti-SipB mouse monoclonal antibody (e.g., obtained from Jorge Galan, SUNY at Stony Brook, N.Y.) followed by treatment with commercially available sheep anti-mouse polyclonal antibody conjugated with horseradish peroxidase. Thereafter the membrane is treated with a peroxidase chemiluminescent substrate and exposed to film for an appropriate exposure time. Inhibition may be measured relative to untreated controls.

SMILES | IC50 [1] | pIC50 [2] | IC50 [3]
O=C(O)[C@H](C[S+]([O-])Cc1ccccc1)Nc1nc(-c2ccc(C(F)(F)F)cc2)nc(N2CCc3ccccc3C2)n1 (stereo partly drawn) [Compound 3, (R)-2-[4-(3,4-Dihydro-1H-isoquinolin-2-yl)-6-(4-trifluoromethylphenyl)-[1,3,5]triazin-2-yl-amino]-3-phenylmethanesulfinylpropionic acid] | 8.5 µM | < 4.00 | 12.5 µM
O=C(O)[C@H](C[S+]([O-])Cc1ccccc1)Nc1nc(-c2ccc(C(F)(F)F)cc2)nc(N2CCN(c3ccccn3)CC2)n1 (stereo partly drawn) [Compound 10, (R)-3-Phenylmethanesulfinyl-2-[4-(4-pyridin-2-yl-piperazin-1-yl)-6-(4-trifluoromethylphenyl)[1,3,5]triazin-2-yl-amino]propionic acid] | 50.1 µM | < 4.00 | > 100 µM
O=C(O)[C@H](C[S+]([O-])Cc1ccccc1)Nc1nc(-c2ccc(-c3ccccc3)cc2)nc(N2CCN(c3ccccn3)CC2)n1 (stereo partly drawn) [Compound 8, (R)-2-[4-Biphenyl-4-yl-6-(4-pyridin-2-yl-piperazin-1-yl)[1,3,5]triazin-2-yl-amino]-3-phenylmethanesulfinylpropionic acid] | 14.4 µM | < 4.00 | 34 µM
O=C(O)[C@H](COCc1ccccc1)Nc1nc(-c2ccc3ccccc3c2)nc(N2CCN(c3ccccn3)CC2)n1 [Compound 1, (S)-3-Benzyloxy-2-[4-naphthalen-2-yl-6-(4-pyridin-2-yl-piperazin-1-yl)-[1,3,5]triazin-2-yl-amino]propionic acid] | 12.4 µM | < 4.00 | 64.8 µM
O=C(O)C(Cc1ccc(-c2ccc(C(F)(F)F)cc2)cc1)Nc1nc(-c2ccc(C(F)(F)F)cc2)nc(N2CCN(c3ccccn3)CC2)n1 (stereo not drawn) [Compound 5, 2-[4-(4-Pyridin-2-yl-piperazin-1-yl)-6-(4-trifluoromethylphenyl)[1,3,5]triazin-2-yl-amino]-3-(4′-trifluoromethylbiphenyl-4-yl)propionic acid] | 10.2 µM | < 4.00 | 18.2 µM
O=C(O)C(CSCc1ccccc1)Nc1nc(-c2ccc(-c3ccccc3)cc2)nc(N2CCN(c3ccccn3)CC2)n1 (stereo in doubt) [Compound 2, (S)-3-Benzylsulfanyl-2-[4-biphenyl-4-yl-6-(4-pyridin-2-yl-piperazin-1-yl)-[1,3,5]triazin-2-yl-amino]propionic acid] | 6.4 µM | < 4.00 | 36.1 µM
O=C(O)C(Cc1ccc(Cl)cc1)Nc1nc(-c2ccc(-c3ccccc3)cc2)nc(N2CCN(c3ccccn3)CC2)n1 (stereo not drawn) [Compound 6, 2-[4-Biphenyl-4-yl-6-(4-pyridin-2-yl-piperazin-1-yl)[1,3,5]triazin-2-yl-amino]-3-(4-chlorophenyl)propionic acid] | 5.3 µM | < 4.00 | 28 µM
O=C(O)C(Cc1ccc(-c2ccc(-c3ccccc3)cc2)cc1)Nc1nc(-c2ccc(-c3ccccc3)cc2)nc(N2CCN(c3ccccn3)CC2)n1 (stereo not drawn) [Compound 7, 2-[4-Biphenyl-4-yl-6-(4-pyridin-2-yl-piperazin-1-yl)[1,3,5]triazin-2-yl-amino]-3[1,1′;4′,1″]terphenyl-4-yl-propionic acid] | 12.6 µM | < 4.00 | 17.5 µM
O=C(O)[C@H](CSCc1ccccc1)Nc1nc(Nc2ccc(C(F)(F)F)cc2)nc(-c2ccc3c(c2)OCO3)n1 [Compound 26, (R)-2-[4-Benzo[1,3]dioxol-5-yl-6-(4-trifluoromethylphenylamino)[1,3,5]triazin-2-yl-amino]-3-benzylsulfanylpropionic acid] | 5.8 µM | 4.28 | 28.1 µM
O=C(O)C(Cc1ccc(Cl)cc1)Nc1nc(-c2ccc(C(F)(F)F)cc2)nc(N2CCN(c3ccccn3)CC2)n1 (stereo not drawn) [Compound 4, 3-(4-Chlorophenyl)-2-[4-(4-pyridin-2-yl-piperazin-1-yl)-6-(4-trifluoromethylphenyl)[1,3,5]triazin-2-yl-amino]propionic acid] | 8.5 µM | < 4.00 | 46.4 µM

— patent US20050250945A1, “Triazine compounds as inhibitors of bacterial type III protein secretion systems” (priority 2004, published 2005)
